Assay results published in the CheMixHub ionic liquid set.

Assay: xn = mol fraction of the nth substance listed

CCCCCC[n+]1ccn(C)c1.C[C@H](N)C(=O)[O-] + O
viscosity [mPa·s], 100 kPa
Settings | 288.15 K | 293.15 K | 298.15 K | 303.15 K | 308.15 K | 313.15 K | 318.15 K | 323.15 K | 328.15 K
x1 = 0.000299 | 1.156 | 1.017 | 0.902 | 0.809 | 0.728 | 0.661 | 0.603 | 0.554 | 0.512
x1 = 0.0003981 | 1.162 | 1.022 | 0.907 | 0.813 | 0.732 | 0.664 | 0.606 | 0.557 | 0.514
x1 = 0.0004989 | 1.167 | 1.026 | 0.911 | 0.816 | 0.735 | 0.666 | 0.608 | 0.559 | 0.516
x1 = 0.0009991 | 1.203 | 1.057 | 0.937 | 0.838 | 0.755 | 0.684 | 0.626 | 0.573 | 0.53
x1 = 0.003 | 1.361 | 1.191 | 1.05 | 0.933 | 0.833 | 0.754 | 0.684 | 0.626 | 0.576
x1 = 0.00499 | 1.512 | 1.325 | 1.162 | 1.027 | 0.916 | 0.825 | 0.745 | 0.681 | 0.625
x1 = 0.006965 | 1.656 | 1.445 | 1.272 | 1.118 | 0.997 | 0.893 | 0.805 | 0.736 | 0.672
x1 = 0.008965 | 1.819 | 1.573 | 1.367 | 1.202 | 1.069 | 0.958 | 0.866 | 0.781 | 0.717
x1 = 0.01103 | 1.954 | 1.694 | 1.475 | 1.287 | 1.145 | 1.026 | 0.928 | 0.831 | 0.763
x1 = 0.01294 | 2.097 | 1.814 | 1.577 | 1.377 | 1.223 | 1.087 | 0.984 | 0.887 | 0.807
x1 = 0.01501 | 2.242 | 1.953 | 1.69 | 1.466 | 1.303 | 1.161 | 1.035 | 0.936 | 0.854
x1 = 0.01801 | 2.455 | – | – | – | – | – | – | – | –

CCCCCn1cc[n+](C)c1.O=S(=O)([N-]S(=O)(=O)C(F)(F)F)C(F)(F)F + O
100 kPa, x2 = 0.2211
Settings | viscosity [mPa·s]
313.15 K | 22.15
318.15 K | 18.86

CCCC[N+](CCCC)(CCCC)CCCC.O=S(=O)([O-])O + O
viscosity [mPa·s], 101 kPa
Settings | x1 = 9.009e-05 | x1 = 0.0001802 | x1 = 0.0002702 | x1 = 0.0003603
298.15 K | 0.894 | 0.896 | 0.899 | 0.901
308.15 K | 0.723 | 0.726 | 0.728 | 0.73
318.15 K | 0.602 | 0.603 | 0.605 | 0.608

CCCC[n+]1ccn(C)c1.O=[N+]([O-])[O-] + O
Settings | viscosity [mPa·s]
295.15 K, 101 kPa, x2 = 0.1659 | 73
308 K, 100 kPa, x1 = 0.4463 | 14.67
308 K, 100 kPa, x1 = 0.6298 | 29.49
313 K, 100 kPa, x1 = 0.05634 | 1.464
313 K, 100 kPa, x1 = 0.08219 | 2.196
313 K, 100 kPa, x1 = 0.2637 | 6.31

CCCOCCn1cc[n+](C)c1.O=S(=O)([N-]S(=O)(=O)C(F)(F)F)C(F)(F)F + O
101 kPa, x1 = 0.8306
Settings | viscosity [mPa·s]
283 K | 78.3
298.1 K | 38.7

CCCn1cc[n+](CCC)c1.O=S(=O)([N-]S(=O)(=O)C(F)(F)F)C(F)(F)F + O
100 kPa, x2 = 0.2232
Settings | viscosity [mPa·s]
303.15 K | 29.21
313.15 K | 20.49
333.15 K | 11.48
348.15 K | 8.09
363.15 K | 6

CCOS(=O)(=O)[O-].CC[N+]1(C)CCCCC1 + O
101 kPa
Settings | viscosity [mPa·s]
298.15 K, x2 = 0.1867 | 690
298.15 K, x2 = 0.5338 | 97
298.15 K, x2 = 0.894 | 7.4
303.15 K, x2 = 0.894 | 6.2
308.15 K, x2 = 0 | 800
308.15 K, x2 = 0.4417 | 92
308.15 K, x2 = 0.8593 | 7.7
313.15 K, x2 = 0.4417 | 71
313.15 K, x2 = 0.8593 | 6.5
318.15 K, x2 = 0.3409 | 90
323.15 K, x2 = 0.2704 | 93
323.15 K, x2 = 0.7839 | 8.8
328.15 K, x2 = 0.2704 | 73
328.15 K, x2 = 0.7839 | 7.5
333.15 K, x2 = 0.1867 | 80
333.15 K, x2 = 0.7357 | 8.6
338.15 K, x2 = 0.1867 | 65
338.15 K, x2 = 0.7357 | 7.5
343.15 K, x2 = 0 | 100
343.15 K, x2 = 0.7357 | 6.8
